Results as given in patent publication US12441706B2, “Protein degradation agent compound preparation method and application” (SHANGHAI JEMINCARE PHARMACEUTICALS CO., LTD., priority 2019, dated 2025).

How the values were obtained:
[1] = system: VCap cells; assay: Inhibition of proliferation of VCap cells (Cell Titer Glo, 6 days); assay type: cell-based; conditions: Homo sapiens, VCaP, 144 h
Protocol: Tumor cell line VCap FGC (ATCC catalog number CRL-2876) was cultured in DMEM (Gibco catalog number 11965-092) medium containing 10% FBS (Gibco catalog number 10099-141C), respectively. During the determination, Vcap cells were replaced with DMEM medium containing 5% FBS and 0.1 nM R1881 (Sigma catalog number R0908).
(§1) Vcap FGC cells were inoculated in a 384-well plate (Perkin Elmer catalog number 6007460) at a cell density of 1200 cells/well in a volume of 20 μL/well and incubated overnight in a carbon dioxide incubator (Thermo). The prepared compound solutions of different concentrations were added in a volume of 5 μL/well. The corresponding vehicle control was set at the same time. After being cultured in the incubator for 6 days, the cell plate and the contents were equilibrated to room temperature, and 25 μL of Cell Titer Glor (Promega catalog number G7573) was added to each well, shake and mix well, incubated in dark for 10-30 minutes, and the signal values were detected though Envision microplate reader (PerkinElmer).
(§2) The percentage inhibition rate of compound-treated wells was calculated from vehicle control wells on the plate, and the percentage inhibition rate data corresponding to different concentrations were fitted by GraphPad prism, and the IC50 values were calculated by 4-parameter nonlinear logic formula.

[2] = system: LNcap FGC cells; assay: Inhibition of proliferation of LNcap FGC cells (Cell Titer Glo, 6 days); assay type: cell-based; conditions: Homo sapiens, LNCaP, 144 h
Protocol: Tumor cell line LNcap FGC (ATCC catalog number CRL-1740) was cultured in RPMI 1640 (Gibco catalog number 11875-093) and DMEM (Gibco catalog number. 11965-092) medium containing 10% FBS (Gibco catalog number 10099-141C), respectively.
as §1, with “LNcap” for “Vcap”, “400” for “1200”, “shook” for “shake”, “mixed” for “mix”, “with” for “though”
as §2, with “from the” for “from”

[3] = target: T1, androgen receptor (Homo sapiens, UniProt P10275); assay: In-Cell-Western determination of androgen receptor degradation in VCaP cells; assay type: cell-based; conditions: 24 hours treatment
T1 construct: endogenous in cells; host or cells: VCaP cells
T1 sequence (P10275 1-920): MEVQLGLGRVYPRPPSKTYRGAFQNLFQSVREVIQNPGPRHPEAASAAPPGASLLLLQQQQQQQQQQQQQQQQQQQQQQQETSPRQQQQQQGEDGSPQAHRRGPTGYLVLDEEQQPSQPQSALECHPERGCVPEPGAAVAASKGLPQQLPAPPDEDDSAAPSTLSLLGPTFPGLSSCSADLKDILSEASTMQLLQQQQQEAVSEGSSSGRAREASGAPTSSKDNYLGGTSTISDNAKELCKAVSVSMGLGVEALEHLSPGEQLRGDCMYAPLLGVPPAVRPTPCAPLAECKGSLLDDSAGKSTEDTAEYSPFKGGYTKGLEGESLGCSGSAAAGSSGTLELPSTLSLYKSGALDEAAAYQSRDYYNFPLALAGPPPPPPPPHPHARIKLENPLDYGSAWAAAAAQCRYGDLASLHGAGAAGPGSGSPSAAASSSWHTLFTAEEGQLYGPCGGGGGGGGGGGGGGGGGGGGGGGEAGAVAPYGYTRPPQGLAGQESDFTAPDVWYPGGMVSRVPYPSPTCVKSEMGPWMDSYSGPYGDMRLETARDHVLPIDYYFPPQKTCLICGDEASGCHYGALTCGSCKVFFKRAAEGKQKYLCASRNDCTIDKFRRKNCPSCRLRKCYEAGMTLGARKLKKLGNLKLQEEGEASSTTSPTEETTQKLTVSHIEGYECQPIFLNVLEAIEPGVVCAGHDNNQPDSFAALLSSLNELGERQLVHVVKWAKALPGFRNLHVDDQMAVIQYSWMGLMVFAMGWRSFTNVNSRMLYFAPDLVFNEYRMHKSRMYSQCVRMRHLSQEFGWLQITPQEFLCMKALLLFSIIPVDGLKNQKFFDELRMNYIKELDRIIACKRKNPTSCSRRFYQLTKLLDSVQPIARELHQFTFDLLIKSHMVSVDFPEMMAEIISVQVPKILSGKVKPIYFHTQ
Protocol: The determination evaluated the properties of the compounds in Vcap cells. Intracellular androgen receptor was determined by In-Cell-Western according to the determination steps described below.
In poly-D-Lysin pretreated 96-well cell culture plate (Corning 3599), Vcap cells were divided into […] volume, and inoculated with 50,000 cells/well in Vcap cell assay medium [DMEM containing phenol red (Gibco catalog number: 11995065); fetal bovine serum FBS (Gibco catalog number: 10099141C)]. Cells were cultured for at least two days.
1. First treated cells with compound. Compounds were gradient diluted with DMSO and cell culture medium, so that DMSO contained in cell culture plates was diluted to 0.5% —polypropylene plates were used according to the following protocol:
(1)(i) 200× stock plate in DMSO was prepared; (ii) 10 mM stock solution was diluted 1:4 with DMSO (10 μL stock solution+40 μL DMSO)=2000 μM, then entered into row 2; (iii) 1:4 (10 μL protac+40 μL DMSO) gradient dilution was performed in row 2 to row 9, and row 1 was reserved for 2000 μM reference compound and row 10 for DMSO. (iv) A total of 8 concentrations (final concentrations on the 200×plate were 2000 μM, 400 μM, 80 μM, etc.). (i) 3×stock solution in medium was prepared; (ii) 3 μL of 200× stock solution was transferred to 197 μL of culture medium (using 12-channel pipette, from line 1 to line 10), i.e. 3× stock solution plate. (iii) The stock solution plate was mixed evenly. (3) (i) The culture medium of Vcap cells was replaced with fresh culture medium, 100 μL volume culture medium. (ii) The well-mixed 3×stock solution was transferred to the cell culture plate (using 12-channel pipette, and 50 μL of stock solution was transferred from line 1 to line 10). (iii) Cells were cultured for 24 hours.
2. The expression level of intracellular androgen receptor after compound treatment was […] and determined according to the following method.
(1)(i) Equal volume of 8% paraformaldehyde was added to the cell culture plate for cell fixation. The fixing solution in the cell plate was discarded and washed three times with PBS. (ii) Triton solution (1:1000 dilution of the stock solution) was prepared. The solution in the cell plate was discarded, and 200 μL of Triton diluent was added into each well. (iii) 2×blocking solution (1:4 dilution of 10×blocking stock solution) was prepared. The solution in the cell plate was discarded, and 100 μL of 2×blocking solution was added into each well. (iv) Primary antibody solution (Androgen receptor Rabbbit mAb, Cell Signaling Technology catalog number: 5153; 1:1000 dilution) was prepared. The solution in the cell plate was discarded, 100 μL volume of primary antibody diluent was added to each well, and incubated at 4° C. overnight. (v) The primary antibody solution was discarded and the cell plate was washed with 1×Wash buffer. (vi) Secondary antibody solution (GOAT Antirabbit IgG (H+L), HRP, Thermo catalog number: 31460; 1:5000 dilution) was prepared, and 100 μL volume of secondary antibody dilution was added to each well for incubation. (vii) The secondary antibody solution in the cell plate was discarded and the cell plate was washed with 1× Wash buffer. (viii) TMB chromogenic solution (BD catalog number: 550534) was prepared, and 100 μL chromogenic solution was added into each well. (ix) 50 μL volume of stop solution (BD catalog number: 550534) was added to each well. (x) The absorption values at OD 450 nm and 570 nm were read though EnVision. (2)(i) Normalized analysis was performed on the number of cells in each well. The solution in the cell plate was discarded, and washed with wash buffer for three times. (ii) Janus dilution (1:3 dilution) was prepared. (iii) 50 μL volume diluent was added to each well for incubation. (iv) The solution in the plate was discarded and washed with deionized water. […]

[4] = system: human prostate cancer VCaP cell subcutaneous xenograft tumor; assay: In vivo pharmacodynamic study, human prostate cancer VCaP cell subcutaneous xenograft tumor CB17 SCID mouse model; conditions: castrated CB17 SCID mice, 24th day after administration
Protocol: Experimental animal: male mice of CB17 SCID strain, aged 6-8 weeks, weighing 18-22 grams, supplier: Beijing Weitong Lihua Laboratory Animal Technology Co., Ltd. Shanghai Branch, animal certificate number: 20170011005577. Animals were reared in the experimental environment for 7 days after arrival and the experiment was started.
Experimental method: Human prostate cancer cell VCaP cells (ATCC-CRL-2876) were cultured in vitro in monolayer, and the culture conditions were DMEM medium with 20% fetal bovine serum, 100 U/mL penicillin and 100 μg/mL streptomycin, cultured in a 5% CO2 incubator at 37° C. Conventional digestion with trypsin-EDTA was performed twice a week for passage. When the cell saturation was 80%-90% and the number reached the requirement, the cells were collected, counted, and inoculated. 0.2 mL (10× 10^6 cells+Matrigel) VCaP cells were subcutaneously inoculated into the left upper limb of each mouse, and castration was performed 33 days after cell inoculation. When the average tumor volume reached 119 mm^3, the drugs were administered in groups, and the doses of compound 14 were set to four groups: 1 mg/kg, 3 mg/kg, 10 mg/kg and 30 mg/kg.
Daily observation of experimental animals: the health status and death of animals were monitored every day. Routine examinations included observing the effects of tumor growth and drug treatment on the daily behavior of animals, such as behavioral activities, food and water intake (visual observation only), and weight changes (body weight measured three times a week), physical signs or other abnormal conditions.
Tumor measurements and experimental indicators: Experimental indicators were to examine whether tumor growth was inhibited, delayed or cured. Tumor diameters were measured with vernier calipers three times a week.
The calculation formula of tumor volume is: V=0.5a×b2, where a and b represented the long diameter and short diameter of the tumor, respectively. The antitumor effect of the compound was evaluated by TGI (%) or relative tumor proliferation rate T/C (%). TGI (%), reflecting the tumor growth inhibition rate. Calculation of TGI (%): TGI (%)=[1−(average tumor volume at the end of administration of a certain treatment group−average tumor volume at the beginning of administration of the treatment group)/(average tumor volume at the end of treatment in the vehicle control group−average tumor volume at the beginning of treatment in the vehicle control group)]×100%. Relative tumor proliferation rate T/C (%): the calculation formula is as follows: T/C %=TRTV/CRTV×100% (TRTV: RTV in the treatment group; CRTV: RTV in the negative control group). The relative tumor volume (RTV) was calculated according to the results of tumor measurement, and the formula is RTV=Vt/V0, where V0 is the average tumor volume measured at the time of group administration (i.e. d0), and Vt is the average tumor volume at a certain measurement, and TRTV and CRTV were taken on the same day. After the experiment, the tumor weight would be detected, and the percentage of T/Cweight would be calculated. Tweight and Cweight represent the tumor weight of the administration group and the vehicle control group, respectively.
Statistical analysis: Statistical analysis included the mean and standard error (SEM) of tumor volume at each time point for each group. […] T-test was used for comparison between two groups, and one-way ANOVA was used for comparison between three or more groups. […]

[5] = In vivo pharmacokinetics in mice, intravenous injection and oral administration; design: species or system mouse; conditions: male CD1 mice
Protocol: In this experimental example, in vivo pharmacokinetics in mice were evaluated by intravenous injection and oral administration.
Experimental methods and conditions: Male CD1 mice, aged 6-8 weeks, all animals were free access to food and water, and were given a single dose of the compound to be tested at 1 mg/Kg by intravenous injection (solvent 5% DMSO/15% Solutol/80% Saline), at 5 min, 15 min, 30 min, 1 hr, 2 hr, 4 hr, 8 hr, 24 hr, 48 h after drug administration, or oral gavage administration of 10 mg/kg (solvent 5% DMSO/10% Solutol/85% Saline), at 15 min, 30 min, 1 hr, 2 hr, 4 hr, 6 h, 8 hr, 24 hr, 48 h after administration, blood was collected from the orbit, no less than 50 μL for each sample, heparin sodium was used for anticoagulation, and then placed on ice after collection, and centrifuged within 1 hour to separate the plasma for testing. The plasma concentration of the drug was detected by liquid tandem mass spectrometry (LC/MS/MS), and the pharmacokinetic parameters were calculated by Phoenix WinNonlin software.

[6] = mouse, intravenous administration 1 mg/kg, plasma
[7] = mouse, oral administration 10 mg/kg, plasma

## CC1(C)C(=O)N(c2ccc(C#N)c(Cl)c2)c2ccc(-c3ccc(N4CC(CN5CCN(c6ccc7c(c6)C(=O)N(C6CCC(=O)NC6=O)C7=O)CC5)C4)nc3)cc21 (stereo not drawn) [Compound 9]
[1]
  Emax: 97%
  IC50: 61 nM
[2]
  Emax: 100%
  IC50: 35.5 nM
[3]; concentration for half of the maximal degradation of AR in VCaP cells
  DC50: 121 nM
[3]; maximum degradation of AR in VCaP cells
  Dmax: 56%

## CNC(=O)c1ccc(N2C(=S)N(c3ccc(C#N)c(C(F)(F)F)c3)C(=O)C2(C)C)cc1F [enzalutamide, reference compound]
[4]
  tumor growth inhibition rate (TGI): 45%

## CC1(C)[C@H](NC(=O)c2ccc(N3CCC(CN4CCN(c5ccc6c(c5)C(=O)N(C5CCC(=O)NC5=O)C6=O)CC4)CC3)cc2)C(C)(C)[C@H]1Oc1ccc(C#N)c(Cl)c1 (stereo partly drawn) [Reference substance 1, reference compound]
[4]; dose 10 mpk
  tumor growth inhibition rate (TGI): 60%
[5]; oral administration 10 mg/kg vs intravenous 1 mg/kg
  F: 99.0%
[5]; [6]
  AUC(0-inf): 5360 ng·h/mL
  clearance: 3.11 mL/min/kg
  half-life: 804 min
[5]; [7]
  AUC(0-inf): 53000 ng·h/mL
  Cmax: 1420 ng/mL
  half-life: 864 min
